Measurements: ChEMBL document CHEMBL3885861, “Open TG-GATES”

Species: Rattus norvegicus
Experiment: Open TG-GATES - Regimen: Daily Repeat
Type: toxicity, organism-based, Sprague-Dawley
Set-up: regimen Daily Repeat, gender Male, age 6 weeks
Settings: in vivo, po, 100 mg/kg, route gavage, dose level High; for APTT / Bas / Eos / Fbg / Hb / Ht / Lym / MCH / MCHC / MCV / Mono / Neu / PT / Plat / RBC / Ret / WBC: tissue Blood; for KIDNEY_L / KIDNEY_R / KIDNEY_TOTAL: tissue Kidney; for LIVER: tissue Liver; for A/G / ALP / ALT / AST / BUN / CRE / Ca / Cl / DBIL / GLC / IP / K / LDH / Na / PL / RALB / TBIL / TC / TG / TP / gamma-GTP: tissue Plasma

O=C1CN(/N=C/c2ccc([N+](=O)[O-])o2)C(=O)N1 [NITROFURANTOIN]
TERMINAL_BW (72 h, time 3 day): 241.1 g | APTT (72 h, time 3 day): 17.7 s | Bas (72 h, time 3 day): 0% | Eos (72 h, time 3 day): 1% | Fbg (72 h, time 3 day): 231 mg/dL | Hb (72 h, time 3 day): 13.4 g/dL | Ht (72 h, time 3 day): 37.9% | Lym (72 h, time 3 day): 77.8% | MCH (72 h, time 3 day): 21.4 pg | MCHC (72 h, time 3 day): 35.5% | MCV (72 h, time 3 day): 60.5 fL | Mono (72 h, time 3 day): 3.2% | Neu (72 h, time 3 day): 15.2% | PT (72 h, time 3 day): 12.4 s | Plat (72 h, time 3 day): 130.5 x10_4/uL | RBC (72 h, time 3 day): 628.2 x10_4/ul | Ret (72 h, time 3 day): 4.9% | WBC (72 h, time 3 day): 70.5 x10_2/uL | KIDNEY_L (72 h, time 3 day): 1.1 g | KIDNEY_R (72 h, time 3 day): 1.1 g | KIDNEY_TOTAL (72 h, time 3 day): 2.2 g | LIVER (72 h, time 3 day): 11.7 g | A/G (72 h, time 3 day): 1.5 | ALP (72 h, time 3 day): 909.6 IU/L | ALT (72 h, time 3 day): 35.2 IU/L | AST (72 h, time 3 day): 67.8 IU/L | BUN (72 h, time 3 day): 14.2 mg/dL | CRE (72 h, time 3 day): 0.4 mg/dL | Ca (72 h, time 3 day): 10.6 mg/dL | Cl (72 h, time 3 day): 100.6 meq/L | DBIL (72 h, time 3 day): 0.1 mg/dL | GLC (72 h, time 3 day): 209.4 mg/dL | IP (72 h, time 3 day): 7.1 mg/dL | K (72 h, time 3 day): 3.9 meq/L | LDH (72 h, time 3 day): 220.2 IU/L | Na (72 h, time 3 day): 139.6 meq/L | PL (72 h, time 3 day): 153.8 mg/dL | RALB (72 h, time 3 day): 3.3 g/dL | TBIL (72 h, time 3 day): 0.1 mg/dL | TC (72 h, time 3 day): 75 mg/dL | TG (72 h, time 3 day): 110.8 mg/dL | TP (72 h, time 3 day): 5.4 g/dL | gamma-GTP (72 h, time 3 day): 1 IU/L | TERMINAL_BW ([…], time 7 day): 266.8 g | TERMINAL_BW ([…], time 14 day): 314.4 g | TERMINAL_BW ([…], time 28 day): 380.6 g | APTT ([…], time 7 day): 18.4 s | Bas ([…], time 7 day): 0% | Eos ([…], time 7 day): 1% | Fbg ([…], time 7 day): 217.8 mg/dL | Hb ([…], time 7 day): 13.5 g/dL | Ht ([…], time 7 day): 38.1% | Lym ([…], time 7 day): 82.6% | MCH ([…], time 7 day): 21.6 pg | MCHC ([…], time 7 day): 35.4% | MCV ([…], time 7 day): 61.1 fL | Mono ([…], time 7 day): 2.2% | Neu ([…], time 7 day): 13.2% | PT ([…], time 7 day): 12.8 s | Plat ([…], time 7 day): 124 x10_4/uL | RBC ([…], time 7 day): 624.8 x10_4/ul | Ret ([…], time 7 day): 5.1% | WBC ([…], time 7 day): 120.6 x10_2/uL | APTT ([…], time 14 day): 19.8 s | Bas ([…], time 14 day): 0% | Eos ([…], time 14 day): 0.8% | Fbg ([…], time 14 day): 225.4 mg/dL | Hb ([…], time 14 day): 14.2 g/dL | Ht ([…], time 14 day): 40.7% | Lym ([…], time 14 day): 81.8% | MCH ([…], time 14 day): 19.8 pg | MCHC ([…], time 14 day): 34.8% | MCV ([…], time 14 day): 56.9 fL | Mono ([…], time 14 day): 2.2% | Neu ([…], time 14 day): 14.4% | PT ([…], time 14 day): 12.4 s | Plat ([…], time 14 day): 133.3 x10_4/uL | RBC ([…], time 14 day): 717.2 x10_4/ul | Ret ([…], time 14 day): 3.9% | WBC ([…], time 14 day): 115.5 x10_2/uL | APTT ([…], time 28 day): 20.5 s | Bas ([…], time 28 day): 0% | Eos ([…], time 28 day): 1% | Fbg ([…], time 28 day): 216.2 mg/dL | Hb ([…], time 28 day): 14.7 g/dL | Ht ([…], time 28 day): 42.6% | Lym ([…], time 28 day): 83.8% | MCH ([…], time 28 day): 18.9 pg | MCHC ([…], time 28 day): 34.6% | MCV ([…], time 28 day): 54.7 fL | Mono ([…], time 28 day): 2.4% | Neu ([…], time 28 day): 11.4% | PT ([…], time 28 day): 12.6 s | Plat ([…], time 28 day): 106 x10_4/uL | RBC ([…], time 28 day): 780.2 x10_4/ul | Ret ([…], time 28 day): 3.2% | WBC ([…], time 28 day): 143.7 x10_2/uL | KIDNEY_L ([…], time 7 day): 1.2 g | KIDNEY_R ([…], time 7 day): 1.2 g | KIDNEY_TOTAL ([…], time 7 day): 2.5 g | KIDNEY_L ([…], time 14 day): 1.4 g | KIDNEY_R ([…], time 14 day): 1.4 g | KIDNEY_TOTAL ([…], time 14 day): 2.8 g | KIDNEY_L ([…], time 28 day): 1.7 g | KIDNEY_R ([…], time 28 day): 1.7 g | KIDNEY_TOTAL ([…], time 28 day): 3.3 g | LIVER ([…], time 7 day): 12.6 g | LIVER ([…], time 14 day): 14.5 g | LIVER ([…], time 28 day): 16.2 g | A/G ([…], time 7 day): 1.5 | ALP ([…], time 7 day): 995.4 IU/L | ALT ([…], time 7 day): 31.2 IU/L | AST ([…], time 7 day): 63.8 IU/L | BUN ([…], time 7 day): 16 mg/dL | CRE ([…], time 7 day): 0.4 mg/dL | Ca ([…], time 7 day): 10.8 mg/dL | Cl ([…], time 7 day): 102.2 meq/L | DBIL ([…], time 7 day): 0.1 mg/dL | GLC ([…], time 7 day): 187 mg/dL | IP ([…], time 7 day): 7 mg/dL | K ([…], time 7 day): 4.1 meq/L | LDH ([…], time 7 day): 218.8 IU/L | Na ([…], time 7 day): 140.4 meq/L | PL ([…], time 7 day): 142.4 mg/dL | RALB ([…], time 7 day): 3.4 g/dL | TBIL ([…], time 7 day): 0.2 mg/dL | TC ([…], time 7 day): 70.2 mg/dL | TG ([…], time 7 day): 111 mg/dL | TP ([…], time 7 day): 5.7 g/dL | gamma-GTP ([…], time 7 day): 1 IU/L | A/G ([…], time 14 day): 1.4 | ALP ([…], time 14 day): 864.2 IU/L | ALT ([…], time 14 day): 34.8 IU/L | AST ([…], time 14 day): 74 IU/L | BUN ([…], time 14 day): 15.4 mg/dL | CRE ([…], time 14 day): 0.4 mg/dL | Ca ([…], time 14 day): 10.3 mg/dL | Cl ([…], time 14 day): 102.2 meq/L | DBIL ([…], time 14 day): 0.084 mg/dL | GLC ([…], time 14 day): 214.8 mg/dL | IP ([…], time 14 day): 6.6 mg/dL | K ([…], time 14 day): 3.5 meq/L | LDH ([…], time 14 day): 208.8 IU/L | Na ([…], time 14 day): 140.8 meq/L | PL ([…], time 14 day): 158.8 mg/dL | RALB ([…], time 14 day): 3.4 g/dL | TBIL ([…], time 14 day): 0.1 mg/dL | TC ([…], time 14 day): 79.2 mg/dL | TG ([…], time 14 day): 110 mg/dL | TP ([…], time 14 day): 6 g/dL | gamma-GTP ([…], time 14 day): 1.6 IU/L | A/G ([…], time 28 day): 1.5 | ALP ([…], time 28 day): 573.8 IU/L | ALT ([…], time 28 day): 35.4 IU/L | AST ([…], time 28 day): 63.8 IU/L | BUN ([…], time 28 day): 15 mg/dL | CRE ([…], time 28 day): 0.5 mg/dL | Ca ([…], time 28 day): 10.3 mg/dL | Cl ([…], time 28 day): 104 meq/L | DBIL ([…], time 28 day): 0.1 mg/dL | GLC ([…], time 28 day): 218.6 mg/dL | IP ([…], time 28 day): 6 mg/dL | K ([…], time 28 day): 3.7 meq/L | LDH ([…], time 28 day): 159.4 IU/L | Na ([…], time 28 day): 141.2 meq/L | PL ([…], time 28 day): 155.2 mg/dL | RALB ([…], time 28 day): 3.6 g/dL | TBIL ([…], time 28 day): 0.2 mg/dL | TC ([…], time 28 day): 75.6 mg/dL | TG ([…], time 28 day): 109.8 mg/dL | TP ([…], time 28 day): 6 g/dL | gamma-GTP ([…], time 28 day): 0.8 IU/L
